Patent US12121521B2, “Uses of salt-inducible kinase (SIK) inhibitors for treating osteoporosis” (The General Hospital Corporation, priority 2016, dated 2024)

Legend:
Format in all cases: cell-based, mouse
[1] = tested on: Ocy454 cells; test: Immunoblotting of Ocy454 cell lysates (HDAC4/5, CRTC2, SIK2 phosphorylation and localisation)
[2] = tested on: Ocy454 cells; test: cAMP radioimmunoassay; settings: 20 minutes; FIG. 14B
Experimental: Cells, in 96 well plates, were treated with indicated ligands for 20 minutes at room temperature in the presence of the phosphodiesterase inhibitor 3-isobutyl-1-methylxanthine (IBMX, Sigma I5879, 2 mM). The medium was then removed and cells were lysed in 50 mM HCl and transferred to −80C. Thawed lysates were diluted 1:5 with dH2O, and an 10 μl aliquot was assessed for cAMP content by radioimmunoassay using ^125I-cAMP analog as a tracer and unlabeled cAMP to generate a standard curve.

[3] = tested on: Ocy454 cells; test: Gene expression in Ocy454 cells by RT-qPCR; settings: FIG. 5E
[4] = tested on: Ocy454 cells; test: Immunoblotting of Ocy454 cell lysates (HDAC4/5, CRTC2, SIK2 phosphorylation and localisation); settings: 10 uM, 90 minutes, compared to DMSO control; FIGS. 17 to 19
Experimental: The Ocy454 osteocyte cell line was treated for 90 minutes with the indicated compound at 10 uM dose (FIG. 17). Phospho-HDAC4 S246 levels were monitored by immunoblotting (top band) compared to DMSO control.
For all experiments, a single cell subclone of Ocy454 cells (17, 18) was used. Cells were passages in alpha-MEM supplemented with 10% heat-inactivated fetal bovine serum and 1% antibiotics (penicillin/streptomycin, Fungizone) at 33° C. with 5% CO2. Cells were plated at 50,000 cells/ml and allowed to reach confluency at 33° C. (typically in 2-3 days). At this point, cells were transferred to 37° C. for subsequent analysis. For immunoblotting, cells were always analyzed after culture at 37° C. for 7 days. For gene expression analysis, cells were analyzed after culture at 37° C. for 14 days. Mycoplasma contamination was ruled out by PCR. Cells were routinely assayed for SOST expression at 37° C. and examined for osteocytic morphology. […]

[5] = tested on: Ocy454 cells; test: Gene expression in Ocy454 cells by RT-qPCR; settings: 0.5 μM, 3.5 hours; FIG. 21
Experimental: In FIG. 21, Ocy454 cells (osteocyte cell line, also known at 6-9 cells) were cultured at 37° C. for 2 weeks to permit osteocyte differentiation. The cells were then treated with the indicated compound (0.5 μM) for 3.5 hours, and gene expression was analyzed by RT-qPCR. SOST expression was reduced by the indicated compounds. RANKL expression was increased by the indicated compounds. […] Therefore, these changes in gene expression may be due to on-target effects of the indicated compound.
For all experiments, a single cell subclone of Ocy454 cells (17, 18) was used. Cells were passages in alpha-MEM supplemented with 10% heat-inactivated fetal bovine serum and 1% antibiotics (penicillin/streptomycin, Fungizone) at 33° C. with 5% CO2. Cells were plated at 50,000 cells/ml and allowed to reach confluency at 33° C. (typically in 2-3 days). At this point, cells were transferred to 37° C. for subsequent analysis. For immunoblotting, cells were always analyzed after culture at 37° C. for 7 days. For gene expression analysis, cells were analyzed after culture at 37° C. for 14 days. Mycoplasma contamination was ruled out by PCR. Cells were routinely assayed for SOST expression at 37° C. and examined for osteocytic morphology.
Total RNA was extracted from cultured cells using RNeasy (Qiagen, Venlo, Netherlands) following the manufacturer's instructions. For long bone RNA isolation, mice were sacrificed and both femurs were rapidly dissected on ice. Soft tissue was removed and epiphyses cut. Bone marrow cells were then removed by serial flushing with ice-cold PBS. TRIzol (Life Technologies) was added and sampled were frozen at −80C and then homogenized. RNA was then extracted per the manufacturer's instructions, and further purified on RNeasy microcolumns prior to cDNA synthesis. RNA with A260/280 ratio <1.7 was not used for downstream analysis. For cDNA synthesis, 1 μg RNA was used in synthesis reactions according to the instructions of the manufacturer (Primescript RT, Takara). SYBR Green-based qPCR detection was performed using FastStart Universal SYBR Green (Roche, Basel, Switzerland) on a StepOne Plus (Applied Biosystems, Carlsbad, CA) thermocycler.

| Compound | block of PTH-mediated decreased HDAC4/5 phosphorylation or SOST suppression ([1]; okadaic acid 300 nM plus PTH, FIGS. 13B and 13C) | dose of optimal efficacy at the level of HDAC4/5 dephosphorylation ([1]; 60 minutes, FIG. 5C) [µM] | HDAC4/5 phosphorylation ([1]; FIGS. 5B and 5C) | cAMP levels [2] | dose of optimal efficacy at the level of gene expression ([3]; 4 hours) [µM] | RANKL expression [3] | SOST expression [3] | Phospho-HDAC4 S246 levels [4] | RANKL expression [5] | SOST expression [5] |
| --- | --- | --- | --- | --- | --- | --- | --- | --- | --- | --- |
| C=C1[C@@H](O)[C@@H]2O[C@]3(CC[C@H](/C=C/[C@@H](C)[C@@H]4CC(C)=C[C@@]5(O[C@H](C[C@@](C)(O)C(=O)O)CC[C@H]5O)O4)O3)CC[C@H]2O[C@@H]1[C@@H](O)C[C@H](C)[C@H]1O[C@@]2(CCCCO2)CC[C@H]1C [okadaic acid, reference compound] | did not block PTH-mediated decreased HDAC4/5 phosphorylation or SOST suppression | – | – | – | – | – | – | – | – | – |
| COc1ccc(N2C(=O)N(c3c(C)cccc3C)Cc3cnc(Nc4ccc(N5CCN(C)CC5)c(OC)c4)nc32)c(OC)c1 [YKL-04-114] | – | ~1 | rapid, dose-dependent decreases in HDAC4/5 phosphorylation | without increasing cAMP levels | ~0.5 | RANKL up-regulation | rapid and potent SOST suppression | showed the most clear results across multiple replicates | most active in these experiments at reducing SOST and increasing RANKL | most active in these experiments at reducing SOST |
